Assay: Forced swimming of mice in a running water pool after oral administration; blood lactic acid, blood sugar and free fatty acid levels
Assay type: in vivo, mice (male; ddY)
Description: This experiment was carried out according to the method disclosed in Jpn. J. Phys. Fitness Sports Med., 1995, 44:225-238. More specifically, mice (male; ddY) (6-week-old; 5 animals per group) were fasted at room temperature for 16 hours, followed by oral administration of a 1.8% by weight aqueous solution containing the composition VAAM or HVAAM as set forth in Table 1 or trehalose; an aqueous solution containing 1.8% by weight of VAAM and 2% by weight of trehalose; or an aqueous solution containing 1.8% by weight of VAAM analogue as set forth in Table 1 and 2% by weight of trehalose in an amount of 37.5 μl/g body weight and thereafter giving the mice a rest at room temperature for 30 minutes. Then the mice were forced to swim in a running water pool (a water tank having a diameter of 32 cm and a depth of 30 cm, which was filled with water maintained at 35° C. and in which the water was circulated at a rate of 8 m/min using a circulator) for 30 minutes. After forcing the mice to swim, they were inspected for the lactic acid level in the blood, the blood sugar (glucose) level and the free fatty acid level in the blood.
The lactic acid level in the blood was determined using a clinical reagent available from Sigma Company, by measuring absorbance at 340 nm due to NADH, each molecule of which was formed when lactic acid was converted into pyruvic acid because of the action of lactic acid dehydrogenase. The free fatty acid level in the serum was determined by centrifuging the collected blood and then quantitatively analyzing the fatty acids present in the supernatant. More specifically, the hydrogen peroxide formed by the action of acyl-CoA synthetic enzyme and acyl-CoA oxidase was reacted with a peroxidase, followed by determination of the absorbance at 550 nm due to the stained 3-methyl-N-ethyl-N-(2-hydroxyethyl)aniline and 4-aminoantipyrine to thus determine the free fatty acid level.

## OC[C@H]1O[C@H](O[C@H]2O[C@H](CO)[C@@H](O)[C@H](O)[C@H]2O)[C@H](O)[C@@H](O)[C@@H]1O [Tre, α, α-trehalose]
Blood glucose, mice fasted 16 h, oral 37.5 μl/g body weight, 30 min rest, after 30 min forced swimming
  Blood Sugar Level: 83.14 mg/dL
blood, mice fasted 16 h, oral 37.5 μl/g body weight, 30 min rest, after 30 min forced swimming
  Lactic Acid Level: 46.69 mg/dL
Free fatty acid in serum, mice fasted 16 h, oral 37.5 μl/g body weight, 30 min rest, after 30 min forced swimming
  NEFA: 0.97 mEq/l
mice, after 30 min swimming, FIG. 3, p<0.05
  free fatty acid level in the blood compared with the group to which 1.8% VAAM was administered: significantly higher
mice, after load of swimming over 30 minutes, FIG. 1
  lactic acid level in the blood compared with the group to which VAAM was administered: did not show any significant difference

Reference: patent US6506552B2, “Amino acid-trehalose composition” (Meiji Dairies Corporation, priority 1998, dated 2003)
